Test results from US9504729B2, “Antiangiogenic small molecules and methods of use” (The United States of America, as represented by the …, priority 2009, dated 2016).

Assays:
FGFR1 = FGFR1 (Homo sapiens, UniProt P11362); experiment: SelectScreen kinase activity profiling, FGFR1; assay type: biochemical; design: concentration or dose not given beside the values; conditions: for Mean % Inhibition: mean of two independent trials
Text: To characterize the RTK inhibitory activity of the antiangiogenic SMs described herein, 36 compounds were chosen and screened using Invitrogen's SelectScreen® kinase activity profiling service (described on-line at tools.invitrogen.com/content.cfm?pageid=10413#selection). VEGFR1 and FGFR2 RTK inhibitory activities were studied. […] Overall, a small minority of the SMs tested had any substantial kinase inhibitory activity. This observation supports a mechanism of antiangiogenic action other than RTK inhibition for most of the SMs described herein.

KDR(VEGFR2) = KDR(VEGFR2) (Homo sapiens, UniProt P35968); experiment: SelectScreen kinase activity profiling, KDR(VEGFR2); assay type: biochemical; design: % Inhibition / Mean % Inhibition: concentration or dose not given beside the values; conditions: KDR(VEGFR2); for Mean % Inhibition: mean of two independent trials
KDR(VEGFR2), sequence (P35968 20-1356): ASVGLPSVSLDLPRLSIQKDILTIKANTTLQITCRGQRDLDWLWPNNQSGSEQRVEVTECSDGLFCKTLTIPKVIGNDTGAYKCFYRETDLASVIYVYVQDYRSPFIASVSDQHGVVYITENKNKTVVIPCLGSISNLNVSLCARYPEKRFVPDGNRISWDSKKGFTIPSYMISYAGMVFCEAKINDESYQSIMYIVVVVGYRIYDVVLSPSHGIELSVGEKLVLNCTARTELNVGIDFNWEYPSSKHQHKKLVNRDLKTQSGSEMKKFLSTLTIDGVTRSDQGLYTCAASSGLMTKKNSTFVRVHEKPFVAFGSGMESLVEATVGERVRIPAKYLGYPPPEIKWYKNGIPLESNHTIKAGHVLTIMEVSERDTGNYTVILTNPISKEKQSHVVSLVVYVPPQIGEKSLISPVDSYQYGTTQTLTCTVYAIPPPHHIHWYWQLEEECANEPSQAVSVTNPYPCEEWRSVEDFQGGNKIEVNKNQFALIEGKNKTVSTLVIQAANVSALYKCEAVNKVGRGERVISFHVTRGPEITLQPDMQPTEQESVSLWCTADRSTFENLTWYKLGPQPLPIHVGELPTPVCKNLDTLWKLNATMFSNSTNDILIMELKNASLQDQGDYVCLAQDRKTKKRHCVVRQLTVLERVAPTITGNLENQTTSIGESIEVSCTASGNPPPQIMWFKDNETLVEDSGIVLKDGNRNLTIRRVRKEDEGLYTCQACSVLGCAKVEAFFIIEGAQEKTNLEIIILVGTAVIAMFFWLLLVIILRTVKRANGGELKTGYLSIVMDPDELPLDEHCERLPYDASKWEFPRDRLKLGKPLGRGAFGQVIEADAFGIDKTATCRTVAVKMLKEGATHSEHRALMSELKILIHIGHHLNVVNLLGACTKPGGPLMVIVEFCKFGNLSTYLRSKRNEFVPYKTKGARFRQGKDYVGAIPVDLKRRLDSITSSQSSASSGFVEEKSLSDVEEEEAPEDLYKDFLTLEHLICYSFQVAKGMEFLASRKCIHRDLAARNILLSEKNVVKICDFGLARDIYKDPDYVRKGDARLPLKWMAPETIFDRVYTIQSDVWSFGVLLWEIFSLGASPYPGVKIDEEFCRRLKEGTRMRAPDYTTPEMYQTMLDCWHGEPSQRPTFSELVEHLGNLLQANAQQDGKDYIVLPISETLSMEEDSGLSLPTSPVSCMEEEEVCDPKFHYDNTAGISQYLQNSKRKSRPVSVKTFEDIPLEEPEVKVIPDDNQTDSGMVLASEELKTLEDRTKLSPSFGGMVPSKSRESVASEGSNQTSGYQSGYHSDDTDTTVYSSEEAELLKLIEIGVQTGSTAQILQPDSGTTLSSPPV

[1] = first of two independent trials
[2] = second of two independent trials

FGFR1, sequence (P11362 398-822 limits assumed): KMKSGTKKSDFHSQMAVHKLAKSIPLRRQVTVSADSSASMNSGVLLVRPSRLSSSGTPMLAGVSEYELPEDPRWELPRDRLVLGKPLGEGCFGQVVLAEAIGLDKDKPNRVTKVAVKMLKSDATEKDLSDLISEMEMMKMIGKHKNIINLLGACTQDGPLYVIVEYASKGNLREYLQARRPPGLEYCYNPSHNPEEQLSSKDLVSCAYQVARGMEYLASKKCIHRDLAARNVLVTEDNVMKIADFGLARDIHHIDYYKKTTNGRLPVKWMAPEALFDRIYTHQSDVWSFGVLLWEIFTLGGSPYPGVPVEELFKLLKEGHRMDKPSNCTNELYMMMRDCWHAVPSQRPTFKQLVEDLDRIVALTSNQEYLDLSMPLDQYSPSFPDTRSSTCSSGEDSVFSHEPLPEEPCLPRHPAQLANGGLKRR

| SMILES | % Inhibition (FGFR1; [1]) | Mean % Inhibition (FGFR1) | % Inhibition (FGFR1; [2]) | % Inhibition (KDR(VEGFR2); [1]) | Mean % Inhibition (KDR(VEGFR2)) | % Inhibition (KDR(VEGFR2); [2]) |
| --- | --- | --- | --- | --- | --- | --- |
| COc1cc2cc(c1Cl)N(C)C(=O)CC(OC(=O)C(C)C)C1(C)OC1C(C)C1CC(O)(NC(=O)O1)C(OC)/C=C/C=C(\C)C2 (stereo not drawn) [compound 292222] | 2% | 3% | 5% | 8% | 7% | 7% |
| CC1CCN(CC[S-])CC1.O.O.[Cl][Pt+] [compound 292596] | 4% | 4% | 4% | 9% | 14% | 18% |
| O=C1C(=Cc2ccccc2)C(NC2CCCCC2)c2ccccc21 (stereo not drawn) [compound 150117] | 2% | 5% | 7% | 28% | 26% | 24% |
| CCC(=O)OCN1C(=O)C=CC1=O [compound 19630] | 2% | 0% | −2% | 90% | 90% | 91% |
| COc1ccc(CC2C(=O)NC(C)C(=O)N(C)C3Cc4ccc(cc4)Oc4cc(ccc4O)CC(C(=O)NC(C)C(=O)NC(C)C(=O)N2C)N(C)C3=O)cc1 (stereo not drawn) [compound 259969] | 3% | 3% | 3% | 0% | 5% | 9% |
